Tested on: 616215-338-R-J1-PDC spheroids with HUVEC/MSC, viability
Assay: Anticancer human tumor 616215-338-R-J1-PDC patient-derived colon adenocarcinoma cell line growth inhibition [PI3K]
Details: for IC50: curve of first compound; for viability, T/C: stronger effect = lower value
How it was run: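 Three cell types, namely tumor cells, endothelial cells and mesenchymal stem cells, formed each spheroid. Combinations with four PI3K inhibitors were screened at clinically achievable concentrations decreasing by half-log, and spheroid viability was recorded.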

[1] = second compound 0.00316 µM, first compound 0.0316 µM
[2] = second compound 0.00316 µM, first compound 0.1 µM
[3] = second compound 0.00316 µM, first compound 0.316 µM
[4] = second compound 0.00316 µM, first compound 1 µM
[5] = second compound 0.01 µM, first compound 0.0316 µM
[6] = second compound 0.01 µM, first compound 0.1 µM
[7] = second compound 0.01 µM, first compound 0.316 µM
[8] = second compound 0.01 µM, first compound 1 µM
[9] = second compound 0.0316 µM, first compound 0.0316 µM
[10] = second compound 0.0316 µM, first compound 0.1 µM
[11] = second compound 0.0316 µM, first compound 0.316 µM
[12] = second compound 0.0316 µM, first compound 1 µM
[13] = second compound 0.1 µM, first compound 0.0316 µM
[14] = second compound 0.1 µM, first compound 0.1 µM
[15] = second compound 0.1 µM, first compound 0.316 µM
[16] = second compound 0.1 µM, first compound 1 µM
[17] = second compound 0.316 µM, first compound 0.0316 µM
[18] = second compound 0.316 µM, first compound 0.1 µM
[19] = second compound 0.316 µM, first compound 0.316 µM
[20] = second compound 0.316 µM, first compound 1 µM
[21] = second compound 1 µM, first compound 0.0316 µM
[22] = second compound 1 µM, first compound 0.1 µM
[23] = second compound 1 µM, first compound 0.316 µM
[24] = second compound 1 µM, first compound 1 µM
[25] = second compound 0.00316 µM, first compound 3.16 µM
[26] = second compound 0.00316 µM, first compound 10 µM
[27] = second compound 0.01 µM, first compound 3.16 µM
[28] = second compound 0.01 µM, first compound 10 µM
[29] = second compound 0.0316 µM, first compound 3.16 µM
[30] = second compound 0.0316 µM, first compound 10 µM
[31] = second compound 0.1 µM, first compound 3.16 µM
[32] = second compound 0.1 µM, first compound 10 µM
[33] = second compound 0.316 µM, first compound 3.16 µM
[34] = second compound 0.316 µM, first compound 10 µM
[35] = second compound 1 µM, first compound 3.16 µM
[36] = second compound 1 µM, first compound 10 µM
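Note: spheroids exposed to agents for seven days before the viability read.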

CCN1CCN(Cc2ccc(Nc3ncc(F)c(-c4cc(F)c5nc(C)n(C(C)C)c5c4)n3)nc2)CC1 + CC(Nc1ccc2c(c1)OCCn1cc(N3C(=O)OCC3C(F)F)nc1-2)C(N)=O
IC50 (second compound 0.00316 µM): > 1 µM
IC50 (second compound 0.01 µM): > 1 µM
IC50 (second compound 0.0316 µM): > 1 µM
IC50 (second compound 0.1 µM): > 1 µM
IC50 (second compound 0.316 µM): > 1 µM
IC50 (second compound 1 µM): > 1 µM
viability, T/C (second compound 0.00316 µM, first compound 0.00316 µM): 93.8%
viability, T/C (second compound 0.00316 µM, first compound 0.01 µM): 100%
viability, T/C [1]: 96.3%
viability, T/C [2]: 98.7%
viability, T/C [3]: 131%
viability, T/C [4]: 111%
viability, T/C (second compound 0.01 µM, first compound 0.00316 µM): 94.9%
viability, T/C (second compound 0.01 µM, first compound 0.01 µM): 102%
viability, T/C [5]: 98.5%
viability, T/C [6]: 102%
viability, T/C [7]: 113%
viability, T/C [8]: 102%
viability, T/C (second compound 0.0316 µM, first compound 0.00316 µM): 103%
viability, T/C (second compound 0.0316 µM, first compound 0.01 µM): 111%
viability, T/C [9]: 99.8%
viability, T/C [10]: 107%
viability, T/C [11]: 112%
viability, T/C [12]: 96.6%
viability, T/C (second compound 0.1 µM, first compound 0.00316 µM): 104%
viability, T/C (second compound 0.1 µM, first compound 0.01 µM): 94.3%
viability, T/C [13]: 99.3%
viability, T/C [14]: 108%
viability, T/C [15]: 107%
viability, T/C [16]: 74.5%
viability, T/C (second compound 0.316 µM, first compound 0.00316 µM): 102%
viability, T/C (second compound 0.316 µM, first compound 0.01 µM): 110%
viability, T/C [17]: 105%
viability, T/C [18]: 97.8%
viability, T/C [19]: 96.1%
viability, T/C [20]: 57.6%
viability, T/C (second compound 1 µM, first compound 0.00316 µM): 113%
viability, T/C (second compound 1 µM, first compound 0.01 µM): 90.9%
viability, T/C [21]: 84.6%
viability, T/C [22]: 85.5%
viability, T/C [23]: 73.7%
viability, T/C [24]: 49.6%

Cn1ncc(Cl)c1-c1cc(C(=O)NC(CN)Cc2cccc(F)c2)sc1Cl (stereo unspecified) + CC(Nc1ccc2c(c1)OCCn1cc(N3C(=O)OCC3C(F)F)nc1-2)C(N)=O
IC50 (second compound 0.00316 µM): 6.62 µM
IC50 (second compound 0.01 µM): 5.81 µM
IC50 (second compound 0.0316 µM): 5.89 µM
IC50 (second compound 0.1 µM): 5.78 µM
IC50 (second compound 0.316 µM): 6.34 µM
IC50 (second compound 1 µM): 5.53 µM
viability, T/C [1]: 101%
viability, T/C [2]: 82.3%
viability, T/C [3]: 96.3%
viability, T/C [4]: 92.7%
viability, T/C [25]: 78.6%
viability, T/C [26]: 33.6%
viability, T/C [5]: 87.6%
viability, T/C [6]: 96%
viability, T/C [7]: 115%
viability, T/C [8]: 104%
viability, T/C [27]: 68.3%
viability, T/C [28]: 33.6%
viability, T/C [9]: 104%
viability, T/C [10]: 92.2%
viability, T/C [11]: 91.9%
viability, T/C [12]: 88.8%
viability, T/C [29]: 73.7%
viability, T/C [30]: 30.3%
viability, T/C [13]: 90.2%
viability, T/C [14]: 108%
viability, T/C [15]: 95.1%
viability, T/C [16]: 83.7%
viability, T/C [31]: 73.4%
viability, T/C [32]: 30%
viability, T/C [17]: 90.1%
viability, T/C [18]: 110%
viability, T/C [19]: 97%
viability, T/C [20]: 88.3%
viability, T/C [33]: 71.6%
viability, T/C [34]: 36.1%
viability, T/C [21]: 100%
viability, T/C [22]: 101%
viability, T/C [23]: 93.9%
viability, T/C [24]: 81.1%
viability, T/C [35]: 74.6%
viability, T/C [36]: 27.9%

Cn1nccc1Nc1nccc(-c2ccn(C(CO)c3ccc(Cl)c(F)c3)c(=O)c2)n1 (stereo unspecified) + CC(Nc1ccc2c(c1)OCCn1cc(N3C(=O)OCC3C(F)F)nc1-2)C(N)=O
IC50 (second compound 0.00316 µM): 4.61 µM
IC50 (second compound 0.01 µM): 3.92 µM
IC50 (second compound 0.0316 µM): 2.32 µM
IC50 (second compound 0.1 µM): 1.15 µM
IC50 (second compound 0.316 µM): 0.986 µM
IC50 (second compound 1 µM): 1.24 µM
viability, T/C [1]: 94.1%
viability, T/C [2]: 87%
viability, T/C [3]: 74.5%
viability, T/C [4]: 71.3%
viability, T/C [25]: 53.8%
viability, T/C [26]: 40.1%
viability, T/C [5]: 100%
viability, T/C [6]: 97.6%
viability, T/C [7]: 81.8%
viability, T/C [8]: 71.1%
viability, T/C [27]: 50.7%
viability, T/C [28]: 41%
viability, T/C [9]: 86.8%
viability, T/C [10]: 103%
viability, T/C [11]: 87.7%
viability, T/C [12]: 58.3%
viability, T/C [29]: 54.2%
viability, T/C [30]: 38.4%
viability, T/C [13]: 96.8%
viability, T/C [14]: 91.6%
viability, T/C [15]: 78.1%
viability, T/C [16]: 50.8%
viability, T/C [31]: 38.8%
viability, T/C [32]: 33%
viability, T/C [17]: 92.5%
viability, T/C [18]: 100%
viability, T/C [19]: 66.8%
viability, T/C [20]: 52.6%
viability, T/C [33]: 37.4%
viability, T/C [34]: 29.1%
viability, T/C [21]: 96.8%
viability, T/C [22]: 93.7%
viability, T/C [23]: 72.5%
viability, T/C [24]: 44.9%
viability, T/C [35]: 40.5%
viability, T/C [36]: 6.88%

Reference: PubChem BioAssay AID1963978 (Molecular Pharmacology Branch, DTP, NCI, 2024)
